# Results taken from patent publication US8609399B2, “Reducing insoluble deposit formation in ethanol production” (Global Process Technologies, Inc., priority 2007, dated 2013).
# Assay: Solubility in Presence of Ethanol (temperature at which a precipitate became visible)
# Assay type: physicochemical
# Settings: 800 ppm Mg2+ and 3600 ppm phytic acid
# From the text: In the table, the water and ethanol columns indicate the temperature at which a precipitate became visible in a solution containing 800 ppm Mg^2+ and 3600 ppm phytic acid.
substance,measurement,setting,value
magnesium phytate,Temperature (° C.; in 13% ethanol/87% water solution) at which a precipitate became visible,pH 4.35,40 °C
same,Temperature (° C.; in 100% water solution) at which a precipitate became visible,pH 4.52,80 °C
same,Temperature (° C.; in 13% ethanol/87% water solution) at which a precipitate became visible,pH 4.53,30 °C
same,Temperature (° C.; in 13% ethanol/87% water solution) at which a precipitate became visible,pH 4.6,21 °C
same,Temperature (° C.; in 100% water solution) at which a precipitate became visible,pH 4.97,60 °C
same,Temperature (° C.; in 100% water solution) at which a precipitate became visible,pH 5.36,40 °C
same,Temperature (° C.; in 100% water solution) at which a precipitate became visible,pH 5.6,21 °C
